Values of other authors, collected in patent US10548876B2 (Race Oncology Ltd., priority 2013, dated 2020).
Structures can show the parent of a compound that is named as a salt. Where two headings read alike, the source gives them in different places.

Legend:
telomerase = settings: by interfering with substrate recognition
[1] = tested on: telomerase-expressing cells and ALT-positive cell lines
[2] = target: glycogen synthase kinase-3β (GSK-3β) (Homo sapiens, UniProt P49841)
[3] = triphasic elimination
metastatic breast cancer = settings: patients with metastatic breast cancer
[4] = 5 day schedule of 60 min infusions
[5] = not given; remark: listed apart in the source
[6] = not given; remark: listed apart in the source
[7] = physiologic pH
P-glycoprotein = P-glycoprotein (Homo sapiens, UniProt P08183)
[8] = one report; interpreted as tissue sequestration with depot effect
double-stranded DNA = settings: under physiological conditions, threading mode
human colon cancer = human colon cancer tested in vitro or in vivo
[9] = 72-hr infusion
[10] = tested on: refractory malignant melanoma
[11] = tested on: hepatic microsomal enzymes; settings: specific metabolites not identified
[12] = not given; remark: listed apart in the source
[13] = not given; remark: listed apart in the source
[14] = tested on: colon 26, Lewis lung, Ridgway osteosarcoma, B16, Lieberman plasma cell, P388 or L1210 cancer cells
[15] = over 96 hr
[16] = in vivo
[17] = local injection; physically decomposes bisantrene
[18] = patients, 90 min infusion at 260 mg/m^2

glycogen synthase kinase-3β (GSK-3β), sequence (P49841 whole entry, species assumed): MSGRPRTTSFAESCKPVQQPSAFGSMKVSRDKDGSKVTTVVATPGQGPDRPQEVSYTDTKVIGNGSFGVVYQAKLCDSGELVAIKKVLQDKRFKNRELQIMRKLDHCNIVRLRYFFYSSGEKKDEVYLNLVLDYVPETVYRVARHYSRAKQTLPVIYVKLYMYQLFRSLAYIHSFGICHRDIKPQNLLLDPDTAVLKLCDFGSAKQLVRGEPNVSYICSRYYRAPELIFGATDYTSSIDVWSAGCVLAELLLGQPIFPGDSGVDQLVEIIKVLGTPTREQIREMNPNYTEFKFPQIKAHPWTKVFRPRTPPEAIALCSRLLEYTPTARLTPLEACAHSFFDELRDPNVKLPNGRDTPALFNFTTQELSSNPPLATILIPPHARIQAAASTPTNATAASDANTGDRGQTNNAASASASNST
P-glycoprotein, sequence (P08183 whole entry): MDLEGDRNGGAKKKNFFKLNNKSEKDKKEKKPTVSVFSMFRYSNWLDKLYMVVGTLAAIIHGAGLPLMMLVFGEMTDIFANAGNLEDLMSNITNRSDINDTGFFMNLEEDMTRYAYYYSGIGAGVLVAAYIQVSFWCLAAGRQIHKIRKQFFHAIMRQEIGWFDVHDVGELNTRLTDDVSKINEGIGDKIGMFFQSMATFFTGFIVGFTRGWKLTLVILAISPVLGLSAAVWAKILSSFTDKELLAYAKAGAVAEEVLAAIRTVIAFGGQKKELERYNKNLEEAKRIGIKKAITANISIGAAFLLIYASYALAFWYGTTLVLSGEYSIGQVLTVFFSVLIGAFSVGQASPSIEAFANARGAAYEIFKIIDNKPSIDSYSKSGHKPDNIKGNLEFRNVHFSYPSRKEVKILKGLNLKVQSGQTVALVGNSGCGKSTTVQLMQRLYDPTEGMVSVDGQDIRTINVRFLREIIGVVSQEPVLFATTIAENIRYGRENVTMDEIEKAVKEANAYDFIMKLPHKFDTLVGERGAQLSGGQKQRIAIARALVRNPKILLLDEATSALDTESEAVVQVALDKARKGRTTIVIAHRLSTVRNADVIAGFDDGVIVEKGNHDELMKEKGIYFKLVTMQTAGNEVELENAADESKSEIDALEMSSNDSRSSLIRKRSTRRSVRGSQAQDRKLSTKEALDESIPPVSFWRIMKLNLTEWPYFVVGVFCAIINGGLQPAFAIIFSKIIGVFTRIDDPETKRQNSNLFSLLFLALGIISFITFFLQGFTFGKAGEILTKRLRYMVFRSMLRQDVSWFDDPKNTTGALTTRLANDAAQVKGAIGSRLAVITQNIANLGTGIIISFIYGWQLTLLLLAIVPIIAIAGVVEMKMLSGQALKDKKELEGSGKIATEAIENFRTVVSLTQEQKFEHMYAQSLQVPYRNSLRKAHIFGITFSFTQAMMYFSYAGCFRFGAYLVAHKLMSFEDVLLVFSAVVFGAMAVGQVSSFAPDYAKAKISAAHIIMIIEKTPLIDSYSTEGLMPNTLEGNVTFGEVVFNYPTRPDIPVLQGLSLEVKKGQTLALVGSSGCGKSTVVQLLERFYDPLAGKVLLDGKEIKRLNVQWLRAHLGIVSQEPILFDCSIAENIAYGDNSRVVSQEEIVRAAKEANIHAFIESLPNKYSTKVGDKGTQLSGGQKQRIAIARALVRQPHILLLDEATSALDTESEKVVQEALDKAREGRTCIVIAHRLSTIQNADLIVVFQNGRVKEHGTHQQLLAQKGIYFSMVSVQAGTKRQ

In the case of C(=N\NC1=NCCN1)/c1cccc2cc3c(/C=N/NC4=NCCN4)cccc3cc12 [Formula (III)], the “effect at the telomerase level” value (telomerase) is given as “suppressing its catalytic activity”, the apoptosis [1] is given as “absence of apoptosis” and the cell cycle impairment [1] is given as “G2M phase arrest”. The DNA damage response ([1]; telomerase-expressing cells and ALT-positive cell lines, partially co-localize at the telomere) was “formation of γH2AX foci”.

In the case of CN1C(=O)/C(=C2/C(=O)Nc3ccccc32)c2ccccc21 [Meisoindigo, meisoindigo], the “concentration of inhibition of GSK-3β” value [2] is given as 5 to 50 nM.

For C(=NNC1=NCCN1)c1c2ccccc2c(C=NNC2=NCCN2)c2ccccc12 [bisantrene, 9,10-anthracenedicarboxaldehyde bis[(4,5-dihydro-1H-imidazol-2-yl)hydrazine]dihydrochloride], the “t½ α” value ([3]; another single dose study) is given as 3 min, the “t½ β” value ([3]; another single dose study) is given as 1 h and the “t½ γ” value ([3]; another single dose study) is given as 8 h. The “t½ α” value ([3]; first single dose study) was 3.44 min, the “t½ β” value ([3]; first single dose study) was 1.33 h and the “t½ γ” value ([3]; first single dose study) was 26.13 h. The “effect on platelet aggregation” value (Human Platelets) was “inhibit platelet aggregation”, the DNA strand breaks (L1210 leukemia cells; L1210 leukemia cells, typical of inhibition of DNA topoisomerase II) was “induce protein-associated DNA strand breaks” and the DNA supercoiling (L1210 leukemia cells; indicative of DNA intercalation) was “induce altered DNA supercoiling”. The patients reporting malaise (Yap et al. 1982) was “up to one-half of patients”, the “patients who experienced anaphylactoid reactions” value (following a bisantrene infusion) was “Up to 10%” and the nausea or vomiting (human, in vivo) was “very little nausea or vomiting”. For the same compound, the “radioangiocardiographic monitoring of cardiac function” value (patients receiving the drug) was “no decrease in ejection fraction”, the “cardiotoxicity compared with other agents” value (phase III trial) was “less cardiotoxic than mitoxantrone or doxorubicin” and the “Alopecia (hair loss) compared with doxorubicin” value (randomized trial in advanced breast cancer) was “less intense”. The “activity in Phase II clinical trials” value (metastatic breast cancer) was “active”, the “dose excreted in the urine” value [4] was 7.1% and the “t½ α” value [4] was 0.9 h. For the same compound, the “t½ β” value [4] was 9.7 h, the “administered dose excreted unchanged in the urine” value ([5]; in 24 hr) was 11.3% and the plasma clearance [5, 18] was 735 mL/min/m^2. The “steady state volume of distribution (Vdss)” value [5, 18] was 1845 L/m^2, the “dose excreted in the urine” value ([6]; in vivo) was “Less than 7%” and the “route by which the majority of the drug is eliminated” value ([6]; in vivo) was “hepatobiliary route”. The “area under the plasma concentration×time curve” value ([6]; intravenous dose of 260 mg/m^2) was 4400 µg·h/mL, the “area under the plasma concentration×time curve” value ([6]; intravenous dose of 340 mg/m^2) was 5700 µg·h/mL and the beta phase ([6]; three phases of elimination) was “approximately 1.5 hours”. For the same compound, the initial distributive phase ([6]; three phases of elimination) was 6 min, the aqueous solubility [7] was “lack of aqueous solubility” and the “interaction with P-glycoprotein” value (P-glycoprotein) was “substrate for P-glycoprotein”. For the same compound, the volume of distribution [8] was 687 L/m^2, the affinity constants (double-stranded DNA) was “above 10^6 M^−1” and the “bound to plasma proteins” value (plasma proteins) was “More than 95%”. For the same compound, the activity (human colon cancer) was “inactive”, the plasma clearance [9] was 1306±179 mL/min/m^2 and the plasma concentration ([9]; dose of 56 mg/m^2) was 12 ± 6 ng/mL. For the same compound, the plasma concentration ([9]; dose of 260 mg/m^2) was 55 ± 8 ng/mL, the “urinary excretion of the dose” value ([9]; in 24 hr) was 4.6% and the activity [10] was “inactive”. For the same compound, the metabolism in vitro [11] was “substrate for hepatic microsomal enzymes”, the “sensitivity in in vitro colony-forming assays” value (Human tumor cells; breast, ovarian, renal, small cell and non-small cell lung cancer, lymphoma, acute myelogenous leukemia, melanoma, gastric, adrenal, head and neck cancer) was “sensitive” and the “Activity in clonogenic assays from 684 patients” value (Human tumor cells; colorectal cancer) was “not in colorectal cancer”. The cross resistance (Human tumor cells; with Adriamycin and mitoxantrone) was “lack of cross resistance”, the cardiotoxicity ([12]; animals) was “not cardiotoxic” and the “toxicity compared with doxorubicin” value ([12]; cardiotoxicity context) was “less than that of the anthracycline doxorubicin”. The toxicities observed ([12]; dogs and monkeys, high doses) was “leukopenia, anorexia, diarrhea, injection site necrosis, enterocolitis, muscle degeneration, and pulmonary edema”, the Maximally tolerated dose ([13]; daily×5, repeat every 4 week (Spiegel et al. 1982)) was 80 mg/m^2 and the “antitumor activity in phase I clinical trials” value ([13]; hepatocellular cancer and hypernephroma (one patient each), lymphoma, myeloma, melanoma, renal cancer, tumors of the bladder and lung) was “showed activity”. For the same compound, the Thrombocytopenia ([13]; human, in vivo) was “mild”, the “major dose-limiting toxic effect” value ([13]; human, in vivo) was “leukopenia” and the Maximally tolerated dose ([13]; monthly (every 3-4 week) (Von Hoff et al. 1981b)) was 260 mg/m^2. The Maximally tolerated dose ([13]; monthly, patients with poor bone marrow reserve (Von Hoff et al. 1981b)) was 240 mg/mg^2, the “dose limiting toxicity (DLT)” value ([13]; phase I doses between 190-430 mg/m^2 q3w) was “neutropenia” and the “doses requiring a central line due to phlebitis” value ([13]; phase I study, 72 h) was “over 156 mg/m^2”. The MTD ([13]; phase I study, over 72 h) was 300 mg/m^2, the nadir for myelosuppression ([13]; schedule of every 3 to 4 weeks) was 9 days and the recovery from myelosuppression ([13]; schedule of every 3 to 4 weeks) was ≤ 19 days. The Maximally tolerated dose ([13]; weekly×3 (Alberts et al. 1982)) was 200 mg/m^2, the Maximally tolerated dose ([13]; weekly×3, patients with poor bone marrow reserve (Alberts et al. 1982)) was 150 mg/mg^2 and the Maximally tolerated dose ([13]; weekly×3, repeat every 4-5 week (Yap et al. 1982)) was 150 mg/m^2. For the same compound, the “time after treatment for which cytostatic macrophages could be isolated from peritoneal exudate” value (macrophages; cytostatic in cultures of P815 (mastocytoma) tumor cells) was 4 weeks, the “minimal effective in vivo dose” value (macrophages; macrophage activation) was ~25 mg/kg and the “activity in murine tumor models” value ([14]; P-388 leukemia and B-16 melanoma) was “antitumor activity”. The “activity in cancer models” value ([14]; intravenously (i.v.), intraperitoneally (i.p.), or subcutaneously (s.c.)) was “effective”, the “activity in cancer models” value ([14]; orally) was “inactive” and the “administered dose found in the urine” value [15] was 3.4±1.1%. For the same compound, the Brain levels [16] was “extremely low” and the “tissues with the highest concentration (in descending order)” value [16] was “kidney, liver, gallbladder, spleen, lung, and heart”.

In the case of O=C([O-])O.[Na+] [sodium bicarbonate], the extravasation necrosis [17] is listed as “blocked”.
